Patent US20230271968A1, “PYRAZOLOPYRIMIDINE COMPOUND USED AS ATR KINASE INHIBITOR” (priority 2020, published 2023)
pIC50: −log10 of the molar value. Read-outs that look alike come from different tables or passages of the source.

Tests used:
MV4-11 (leukemia) cells = test: Cell proliferation inhibition in vitro, CellTiter-Glo luminescence, MV4-11; assay type: cell-based, human; details: MV4-11 cells, 120 hours
Description: (§1) By detecting the effect of compounds on cell activity in vitro in tumor cell lines TOV21G (ovarian cancer) and MV4-11 (leukemia), the inhibitory effect of compounds on cell proliferation was studied in this assay.
(§2) TOV21G cells and MV4-11 cells were purchased from American Type Culture Collection (ATCC).
MV-4-11 cells were cultured in IMDM medium (containing 20% of FBS). About 10,000 cells were inoculated in each well of a 96-well culture plate, and treated by adding different concentrations (0-10 μM) of compounds to be assayed. Each group was assayed in triplicate. Blank wells (containing medium only) and control wells (inoculated cells without being treated with drug) were set. Cells were cultured for 120 hours. 40 μL of Cell Titer-Glo solutions were added to each well, and the cells were incubated with shaking for 20 min in the dark. 100 μL of solution was transferred from each well to a 96-well blank plate, and the luminescence value was read by Biotek Synergy H1 multifunctional microplate reader.
(§3) Inhibition rate (%)=100%×(control well−assay well)/(control well−blank well)

ATR kinase = ATR kinase (Homo sapiens (Human), UniProt Q13535); test: Assay of ATR kinase activity (time-resolved fluorescence, phosphorylation of p53-derived protein); assay type: biochemical; details: ATR/ATRIP, p53 substrate, 30 minutes at room temperature
Chain of ATR kinase (Q13535 whole entry, looked up): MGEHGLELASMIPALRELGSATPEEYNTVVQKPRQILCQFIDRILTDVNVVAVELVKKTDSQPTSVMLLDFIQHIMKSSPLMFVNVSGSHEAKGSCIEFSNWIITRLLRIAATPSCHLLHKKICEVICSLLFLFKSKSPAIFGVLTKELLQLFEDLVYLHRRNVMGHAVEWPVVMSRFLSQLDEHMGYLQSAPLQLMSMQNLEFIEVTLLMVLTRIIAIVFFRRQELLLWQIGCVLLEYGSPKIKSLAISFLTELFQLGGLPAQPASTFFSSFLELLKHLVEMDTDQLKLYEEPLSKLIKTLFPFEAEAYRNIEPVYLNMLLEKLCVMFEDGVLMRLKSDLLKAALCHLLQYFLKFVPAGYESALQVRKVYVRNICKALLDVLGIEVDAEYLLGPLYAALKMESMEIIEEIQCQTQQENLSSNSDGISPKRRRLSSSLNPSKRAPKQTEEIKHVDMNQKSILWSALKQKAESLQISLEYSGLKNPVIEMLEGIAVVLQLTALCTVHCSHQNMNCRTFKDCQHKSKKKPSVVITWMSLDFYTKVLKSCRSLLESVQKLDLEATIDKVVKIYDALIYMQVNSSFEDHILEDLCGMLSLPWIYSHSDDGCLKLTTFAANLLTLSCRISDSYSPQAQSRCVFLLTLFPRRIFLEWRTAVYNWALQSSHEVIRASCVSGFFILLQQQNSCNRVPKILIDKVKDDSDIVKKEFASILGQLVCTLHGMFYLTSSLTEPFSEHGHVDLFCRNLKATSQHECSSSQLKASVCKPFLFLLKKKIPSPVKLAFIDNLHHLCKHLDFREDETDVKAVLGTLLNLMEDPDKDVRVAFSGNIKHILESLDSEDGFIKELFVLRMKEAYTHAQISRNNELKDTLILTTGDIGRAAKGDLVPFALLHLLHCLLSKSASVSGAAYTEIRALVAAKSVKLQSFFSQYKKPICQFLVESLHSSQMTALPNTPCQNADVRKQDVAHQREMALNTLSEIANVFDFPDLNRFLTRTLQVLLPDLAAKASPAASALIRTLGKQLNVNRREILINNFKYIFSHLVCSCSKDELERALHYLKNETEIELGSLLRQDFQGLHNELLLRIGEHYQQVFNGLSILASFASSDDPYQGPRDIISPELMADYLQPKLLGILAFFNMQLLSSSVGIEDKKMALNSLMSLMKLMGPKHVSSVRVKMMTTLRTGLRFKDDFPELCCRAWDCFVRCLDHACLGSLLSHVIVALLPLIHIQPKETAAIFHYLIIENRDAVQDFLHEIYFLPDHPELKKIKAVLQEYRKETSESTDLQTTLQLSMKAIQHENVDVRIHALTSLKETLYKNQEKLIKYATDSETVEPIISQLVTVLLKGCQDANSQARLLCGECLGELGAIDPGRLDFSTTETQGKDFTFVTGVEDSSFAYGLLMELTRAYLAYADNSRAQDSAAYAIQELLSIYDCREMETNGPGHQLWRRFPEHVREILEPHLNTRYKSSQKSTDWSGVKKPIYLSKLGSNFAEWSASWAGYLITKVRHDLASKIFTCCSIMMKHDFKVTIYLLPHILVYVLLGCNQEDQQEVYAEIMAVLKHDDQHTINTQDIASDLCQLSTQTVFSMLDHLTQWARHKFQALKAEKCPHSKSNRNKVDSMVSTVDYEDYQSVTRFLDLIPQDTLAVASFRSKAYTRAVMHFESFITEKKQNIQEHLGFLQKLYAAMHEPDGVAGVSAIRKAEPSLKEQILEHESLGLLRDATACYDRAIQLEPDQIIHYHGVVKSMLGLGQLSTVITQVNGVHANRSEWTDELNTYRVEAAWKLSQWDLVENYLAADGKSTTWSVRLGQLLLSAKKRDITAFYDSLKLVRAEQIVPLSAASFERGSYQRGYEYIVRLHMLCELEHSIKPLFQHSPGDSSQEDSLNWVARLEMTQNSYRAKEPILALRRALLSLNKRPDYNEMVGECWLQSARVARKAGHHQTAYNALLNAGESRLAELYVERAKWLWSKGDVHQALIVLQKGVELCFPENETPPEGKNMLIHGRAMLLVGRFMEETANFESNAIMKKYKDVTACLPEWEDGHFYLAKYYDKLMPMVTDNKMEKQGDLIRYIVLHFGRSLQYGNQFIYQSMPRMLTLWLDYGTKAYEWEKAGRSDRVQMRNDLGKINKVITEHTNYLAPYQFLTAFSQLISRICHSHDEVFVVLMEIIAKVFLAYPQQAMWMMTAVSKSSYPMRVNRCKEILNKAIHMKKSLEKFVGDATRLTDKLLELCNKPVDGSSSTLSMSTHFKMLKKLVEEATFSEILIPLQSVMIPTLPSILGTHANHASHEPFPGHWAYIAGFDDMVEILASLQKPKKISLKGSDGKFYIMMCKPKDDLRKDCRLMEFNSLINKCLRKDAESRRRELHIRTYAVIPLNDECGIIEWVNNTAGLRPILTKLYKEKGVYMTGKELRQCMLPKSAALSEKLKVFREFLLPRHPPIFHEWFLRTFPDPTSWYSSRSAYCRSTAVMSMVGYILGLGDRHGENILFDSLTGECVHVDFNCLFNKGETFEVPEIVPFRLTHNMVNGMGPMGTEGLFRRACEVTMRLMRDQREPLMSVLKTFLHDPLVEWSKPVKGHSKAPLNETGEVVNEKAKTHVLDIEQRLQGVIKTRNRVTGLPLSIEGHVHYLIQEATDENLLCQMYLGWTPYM
Chain of ATR kinase (Q8WXE1 whole entry partner, looked up): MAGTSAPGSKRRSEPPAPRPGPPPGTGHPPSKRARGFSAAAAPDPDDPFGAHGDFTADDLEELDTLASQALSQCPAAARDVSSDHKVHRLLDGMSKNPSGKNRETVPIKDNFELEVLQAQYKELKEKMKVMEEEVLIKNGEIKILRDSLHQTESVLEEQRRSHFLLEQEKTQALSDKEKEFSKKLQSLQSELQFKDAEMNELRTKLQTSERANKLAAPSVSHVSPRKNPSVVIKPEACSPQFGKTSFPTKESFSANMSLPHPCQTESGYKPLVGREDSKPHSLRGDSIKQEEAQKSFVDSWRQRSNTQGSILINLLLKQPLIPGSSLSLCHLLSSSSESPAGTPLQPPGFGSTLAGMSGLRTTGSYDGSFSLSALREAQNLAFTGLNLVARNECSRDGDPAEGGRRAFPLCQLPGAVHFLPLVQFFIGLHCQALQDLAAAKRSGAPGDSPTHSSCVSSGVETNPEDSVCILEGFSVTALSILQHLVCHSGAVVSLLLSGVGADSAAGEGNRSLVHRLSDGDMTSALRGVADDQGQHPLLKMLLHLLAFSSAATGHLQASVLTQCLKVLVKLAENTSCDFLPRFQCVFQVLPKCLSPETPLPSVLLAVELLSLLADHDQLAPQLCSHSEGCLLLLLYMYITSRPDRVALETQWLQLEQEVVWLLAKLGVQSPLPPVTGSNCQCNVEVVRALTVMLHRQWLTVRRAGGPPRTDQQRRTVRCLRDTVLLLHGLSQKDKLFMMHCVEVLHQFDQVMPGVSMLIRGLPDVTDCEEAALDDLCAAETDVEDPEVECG
Description: The amount of phosphorylated protein was determined by time-resolved fluorescence in this assay. The amount of phosphorylated protein was detected by anti-p53-phospho-(serine 15)-K-specific antibody (Cisbio, art. No.: 61GSTDLA) and d2 labeled anti-GST antibody (Cisbio, art. No. 61P08KAE). […] The reagents used above were purchased from Sigma or Invitrogen, except for those whose manufacturers were mentioned.
Operations were as Follows
4×p53 substrate working solution (40 nM) was prepared with 1×reaction buffer, and 2.5 μL of the 4×p53 substrate working solution was added to a 384-well analysis plate. […] 4×ATP working solution (2 mM) was prepared with deionized water, and 2.5 μL of the 4×ATP working solution was added to a 384-well analysis plate. The plates were incubated at room temperature in dark for 30 minutes. […] Finally, 5 μL of assay mixture (0.084 ng/μL Anti-phospho-p53 (ser15)-K and 5 ng/μL Anti-GST-d2) was added to the 384 well analysis plates, and incubated at room temperature overnight. The fluorescence signal was detected with ENVISION (Perkinelmer) instrument (excitation wavelength: 320 nm, emission wavelength: 665 nm and 615 nm). […] IC50 values of compounds were calculated by standard software for parameter fitting (GraphPad Prism 6.0).

[1] = system: TOV21G (ovarian cancer) cells; test: Cell proliferation inhibition in vitro, CellTiter-Glo luminescence, TOV21G; assay type: cell-based, human; details: read-out: TOV21G/IC50/μM
Description: as §1, §2
About 1000 cells were inoculated in each well of a 96-well culture plate, and cultured for 24 hours. Different concentrations (0-10 μM) of compounds to be assayed were added to treat the cells. Each group was assayed in triplicate. Blank wells (containing medium only) and control wells (inoculated cells without being treated with drug) were set. Cells were cultured for 120 hours. 40 μL of Cell Titer-Glo solutions (Promega, #G7573) were added to each well, and the cells were incubated with shaking for 20 min in the dark.
as §3

ATM = ATM (Homo sapiens (Human), UniProt Q13315); test: Kinase selectivity: inhibitory activity against ATM; assay type: biochemical; details: 3-fold serial dilution from 10 μM to 0.51 nM, 10 concentrations
Description: (§4) The compounds of the present disclosure were assayed for inhibition of the same family (ATM, DNA-PK, PI3K, mTOR): […]

mTOR = mTOR (Homo sapiens (Human), UniProt P42345); test: Kinase selectivity: inhibitory activity against mTOR; assay type: biochemical; details: 3-fold serial dilution from 10 μM to 0.51 nM, 10 concentrations
Description: as §4

[2] = In vitro stability assay in human liver microsome; assay type: in vitro ADME; details: human liver microsomes, compound 2.0 nM, with or without NADPH, within 60 minutes of incubation; read-out: Human liver microsome t1/2
Description: (§5) The compounds of the present disclosure were subjected to stability assay in liver microsome. The compound to be assayed (with a final concentration of 2.0 nM) was co-incubated with human/mouse liver microsomes with or without the addition of NADPH. The concentration of the compound in the supernatant was determined within 60 minutes of incubation.

[3] = In vitro stability assay in mouse liver microsome; assay type: in vitro ADME; details: mouse liver microsomes, compound 2.0 nM, with or without NADPH, within 60 minutes of incubation; read-out: Mouse liver microsome t1/2
Description: as §5

DNA-PK = DNA-PK (Homo sapiens (Human), UniProt P78527); test: Kinase selectivity: inhibitory activity against DNA-PK; assay type: biochemical; details: 3-fold serial dilution from 10 μM to 0.51 nM, 10 concentrations; read-out: IC50/DNAPK
Description: as §4

PI3Kα = PI3Kα (Homo sapiens (Human), UniProt P42336); test: Kinase selectivity: inhibitory activity against PI3Kα; assay type: biochemical; details: 3-fold serial dilution from 10 μM to 0.51 nM, 10 concentrations
Description: as §4

[4] = In vivo pharmacokinetics in male ICR mice, oral gavage; details: mouse, 10 mg/kg, plasma
Description: In vivo pharmacokinetic studies were performed on the compounds of the present disclosure.
Male ICR mice (3 mice/group) were administered orally by gavage at a dose of 10 mg/kg. The plasma samples were collected before administration (0 h) and after administration (0.25, 0.5, 1, 2, 4, 6, 8, 24 h). The collected samples were subjected to LC/MS/analysis, and the data were collected. The relevant pharmacokinetic parameters were calculated by Analyst v1.6.2 (AB Applied Biosystems Company, USA) software using the collected analytical data.

PI3Kδ = PI3Kδ (Homo sapiens (Human), UniProt O00329); test: Kinase selectivity: inhibitory activity against PI3Kδ; assay type: biochemical; details: 3-fold serial dilution from 10 μM to 0.51 nM, 10 concentrations
Description: as §4

[5] = Homo sapiens, TOV21G cells, 120 hours, CellTiter-Glo
[6] = TOV21G cells, 120 hours, CellTiter-Glo

| Structure (SMILES) | IC50 (MV4-11 (leukemia) cells; Homo sapiens) | IC50 (ATR kinase) | IC50 [1, 5] | IC50 (MV4-11 (leukemia) cells) | IC50 [1, 6] | also measured |
| --- | --- | --- | --- | --- | --- | --- |
| Cc1nn(C2CCNCC2)c(C(F)(F)F)c1-c1cc(N2CCOC[C@H]2C)nc2c(-c3ccn[nH]3)cnn12 [Compound A1] | 0.66 µM | 70 nM | 0.66 µM |  |  |  |
| Cc1c(-c2cc(N3CCOC[C@H]3C)nc3c(-c4ccn[nH]4)cnn23)c(C(F)(F)F)nn1C1CCNCC1 [Compound A2] | 0.78 µM | 33 nM | 0.83 µM |  |  |  |
| Cc1nn(C2CCNCC2)c(C)c1-c1cc(N2CCOC[C@H]2C)nc2c(-c3ccn[nH]3)cnn12 [Compound A3] |  | 184 nM |  |  |  |  |
| Cc1noc(C)c1-c1cc(N2CCOC[C@H]2C)nc2c(-c3ccn[nH]3)cnn12 [Compound A4] | 0.75 µM | 74 nM | 1.05 µM |  |  |  |
| Cc1nn(C2CCNCC2)c(C(F)(F)F)c1-c1cc(N2CCOC[C@H]2C)nc2c(-c3ccccn3)cnn12 [Compound A6] |  | 17 nM |  |  |  |  |
| Cc1nn(C2CCNCC2)c(C(F)(F)F)c1-c1cc(N2CCOC[C@H]2C)nc2c(-c3cccs3)cnn12 [Compound A7] |  | 12 nM |  |  |  |  |
| Cc1nnn(C)c1-c1cc(N2CCOC[C@H]2C)nc2c(-c3ccn[nH]3)cnn12 [Compound A8] |  | 84 nM |  | 0.68 µM | 0.78 µM |  |
| Cc1nn(-c2cncc(F)c2)c(C)c1-c1cc(N2CCOC[C@H]2C)nc2c(-c3ccn[nH]3)cnn12 [Compound A9] | 0.25 µM | 2 nM |  |  |  | pIC50 (ATM): 5.20; pIC50 (mTOR): 5.74; IC50 ([1]; Homo sapiens, TOV21G, 120 h): 0.28 µM; half-life at 2 nM [2]: 1.43 h; half-life at 2 nM [3]: 3.63 h; pIC50 (DNA-PK): 6.52; pIC50 (PI3Kα): 5.39; AUC [4]: 6950 ng·h/mL; Cmax [4]: 1810 ng/mL; Tmax [4]: 0.25 h; half-life [4]: 3.3 h; pIC50 (PI3Kδ): 5.95 |
| Cc1nn(-c2cncc(C(F)F)c2)c(C)c1-c1cc(N2CCOC[C@H]2C)nc2c(-c3ccn[nH]3)cnn12 [Compound A10] | 0.27 µM | 3 nM |  |  |  | pIC50 (ATM): 5.39; IC50 ([1]; Homo sapiens, TOV21G, 120 h): 0.3 µM; half-life at 2 nM [2]: 0.6 h; half-life at 2 nM [3]: 2.7 h; pIC50 (DNA-PK): 5.90; AUC [4]: 14300 ng·h/mL; Cmax [4]: 4890 ng/mL; Tmax [4]: 0.25 h; half-life [4]: 1.76 h |
| Cc1nn(-c2cncc(C#N)c2)c(C)c1-c1cc(N2CCOC[C@H]2C)nc2c(-c3ccn[nH]3)cnn12 [Compound A11] | 0.5 µM |  | 0.38 µM |  |  |  |
| Cc1nn(-c2cncc(Cl)c2)c(C)c1-c1cc(N2CCOC[C@H]2C)nc2c(-c3ccn[nH]3)cnn12 [Compound A12] | 0.26 µM | 2 nM | 0.33 µM |  |  | AUC [4]: 8330 ng·h/mL; Cmax [4]: 2270 ng/mL; Tmax [4]: 0.33 h; half-life [4]: 1.98 h |
| Cc1nn(-c2ccnnc2)c(C)c1-c1cc(N2CCOC[C@H]2C)nc2c(-c3ccn[nH]3)cnn12 [Compound A13] | 0.28 µM | 2 nM | 0.21 µM |  |  |  |
| Cc1nn(-c2ccc(=O)[nH]c2)c(C)c1-c1cc(N2CCOC[C@H]2C)nc2c(-c3ccn[nH]3)cnn12 [Compound A14] |  | 3 nM |  |  |  |  |
| Cc1nn(C(=O)N2CCNCC2)c(C)c1-c1cc(N2CCOC[C@H]2C)nc2c(-c3ccn[nH]3)cnn12 [Compound A15] |  | 13 nM |  | 0.45 µM | 0.27 µM |  |
| Cc1nn(C2CCNC[C@H]2F)c(C)c1-c1cc(N2CCOC[C@H]2C)nc2c(-c3ccn[nH]3)cnn12 (some centres unmarked) [Compound A16-II] |  | 31 nM |  | 0.57 µM | 0.52 µM |  |
| Cc1nn(C2CCNC[C@@H]2F)c(C)c1-c1cc(N2CCOC[C@H]2C)nc2c(-c3ccn[nH]3)cnn12 (some centres unmarked) [Compound A16-I] |  | 33 nM |  | 0.89 µM | 1.4 µM |  |
| Cc1nn(-c2cncc(C(N)=O)c2)c(C)c1-c1cc(N2CCOC[C@H]2C)nc2c(-c3ccn[nH]3)cnn12 [Compound A17] |  | 3 nM |  | 0.85 µM | 1.29 µM |  |
| Cc1nn(CCO)c(C)c1-c1cc(N2CCOC[C@H]2C)nc2c(-c3ccn[nH]3)cnn12 [Compound A18] |  | 8 nM |  | 0.74 µM | 0.56 µM |  |
| Cc1nn(-c2cncc(O)c2)c(C)c1-c1cc(N2CCOC[C@H]2C)nc2c(-c3ccn[nH]3)cnn12 [Compound A19] |  | 4 nM |  | 0.6 µM | 0.66 µM |  |
| C[C@@H]1COCCN1c1cc(C2(O)CCOCC2)n2ncc(-c3ccn[nH]3)c2n1 [Compound A20] |  | 188 nM |  | 0.92 µM | 0.73 µM |  |
| C[C@@H]1COCCN1c1cc(-c2cccnc2C(F)(F)F)n2ncc(-c3ccn[nH]3)c2n1 [Compound A21] | 0.74 µM | 52 nM | 0.63 µM |  |  |  |
| Cc1nn(-c2cccnc2)c(C)c1-c1cc(N2CCOC[C@H]2C)nc2c(-c3ccn[nH]3)cnn12 [Compound A22] | 0.23 µM | 2 nM | 0.19 µM |  |  |  |
| Cc1cncc(-n2nc(C)c(-c3cc(N4CCOC[C@H]4C)nc4c(-c5ccn[nH]5)cnn34)c2C)c1 [Compound A23] | 0.3 µM | 4 nM | 0.26 µM |  |  |  |
| Cc1nn(-c2ccncc2)c(C)c1-c1cc(N2CCOC[C@H]2C)nc2c(-c3ccn[nH]3)cnn12 [Compound A24] | 0.23 µM | 2 nM | 0.15 µM |  |  |  |
